pIC50: −log10 of the molar value.

In one series the target is CLK2 (Mus musculus, UniProt O35491). The experiment in a line: Recombinant protein kinase assay, CLK2. The series is classed as biochemical.
Series [1] relates to Tg(Dyrk1a) mice. The series can be described thus: Place object location (POR) spatial memory in Tg(Dyrk1a) mice. The series is classed as in vivo, mouse. As to conditions: L41-treated Tg(Dyrk1a) mice.
Series [2] concerns Tg(Dyrk1a) mice brain phosphoproteins. The series can be described thus: Brain phosphoproteomic analysis, Tg(Dyrk1a) mice. The series is classed as in vivo, mouse. As to conditions: 20 mg/kg daily i.p. 19 days. The text has this: All tissue samples were processed for phosphoproteomics analysis based on the enrichment and separation of proteotypic phosphopeptides with HILIC (see Materials and Methods). In Tg(Dyrk1a) and Ts65Dn mice, the hippocampus, cortex and cerebellum yielded 1384, 1523 and 2004 peptides, respectively, corresponding to 886, 948 and 1229 proteins (Table 1; Tables S1-S13).
Only biological processes common to the three brain regions and both models are presented (complete biological processes are listed in Tables S11-S13).
DYRK1A substrates and their respective phosphorylation sites were identified in the phosphoproteome based on the DYRK1A phosphorylation consensus sequence R-P-x(1,3)-S/T-P ([Himpel et al., 2000]). […] Biological process enrichments of each cluster were assessed by using ToppCluster web server application. […]
Protein Identification and Quantification. […]
Precursor Mass Tolerance 10 ppm, Fragment Mass Tolerance 20 mmu, Dynamic Modifications were Oxidation of M (+15.995 Da), Deamidation of N, Q (+0.984 Da), Phosphorylation of S (+79.966 Da) and Static Modifications were iTRAQ8plex at any N-Terminus, K, Y (+304.205 Da) and Methylthio at C (+45.988 Da). […] The Reporter Ion Quantifier node included a custom iTRAQ 8plex (Thermo Scientific Instruments) Quantification Method, integration window tolerance of 10 ppm with Most Confident Centroid. […]

The target of another series is CDK2/cyclin A (Homo sapiens, UniProt P24941). The series can be described thus: Recombinant protein kinase assay, CDK2/cyclin A. The series is classed as biochemical. As to conditions: 15 µM ATP.
The next series deals with CLK3 (Mus musculus, UniProt O35492). The series can be described thus: Recombinant protein kinase assay, CLK3. The series is classed as biochemical.
In series [3] the test system is Tg(Dyrk1a) mice. The series can be described thus: Novel object recognition (NOR) test in Tg(Dyrk1a) mice. As to conditions: for Recovery in NOR test: 20 mg/kg daily i.p., 24 h retention delay. The series is classed as in vivo, mouse.
The test system of a further series is Dp1Yey mice. The series can be described thus: Resting state fMRI brain functional connectivity, Dp1Yey mice. As to conditions: L41-treated vs vehicle-treated Dp1Yey mice.
The next series concerns DYRK1A. The series can be described thus: Brain DYRK1A protein expression by western blotting after treatment. The series is classed as in vivo, mouse. As to conditions: 19 days daily i.p., transgenic and wt brains. Here is the method:
Brains were obtained from mice and snap-frozen until further use. Then tissues were weighed, homogenized and sonicated in 1 ml lysis buffer (60 mM β-glycerophosphate, 15 mM p-nitrophenylphosphate, 25 mM Mops pH 7.2, 15 mM EGTA, 15 mM MgCl2, 2 mM dithiothreitol, 1 mM sodium orthovanadate, 1 mM sodium fluoride, 1 mM phenylphosphate disodium and protease inhibitor cocktail) per g of material. Homogenates were centrifuged for 15 min at 17,000 g and 4°C. The supernatant was recovered and assayed for protein content (Bio-Rad, France). The proteins were separated by 10% NuPAGE pre-cast Bis-Tris polyacrylamide mini gel electrophoresis (Invitrogen, France) with MOPS-SDS running buffer. Proteins were transferred to 0.45-µm nitrocellulose filters (Schleicher and Schuell, Germany). They were blocked with 5% low-fat milk in Tris-buffered […]/Tween 20, and incubated overnight at 4°C with antibodies. Anti-DYRK1A (H00001859-M01; 1:1000) and anti-GSK-3α/β (KAM-ST002E; 1:1000) were obtained from Interchim (France) and Stressgen (France), respectively. Appropriate secondary antibodies conjugated to horseradish peroxidase (Bio-Rad) were added to visualize the proteins using the enhanced chemiluminescence reaction (ECL, Amersham, France).
For orientation: Immunoblotting shows a protein as a band on a membrane.

A short description of series [4]: Pharmacokinetics and brain biodistribution of L41 after acute i.p. injection. As to conditions: mouse, ip. The series is classed as in vivo. On the procedure:
To investigate the importance of DYRK1A in cognitive deficits shown by transgenic mouse models of DS, we used a series of low molecular weight pharmacological inhibitors, collectively known as leucettines ([Debdab et al., 2011]; [Tahtouh et al., 2012]; T. Tahtouh, unpublished).
re S1. Pharmacokinetics and brain biodistribution of L41 following acute intra-
zoom on the first 8 hours.
Disease Models & Mechanisms • Supplementary information

Sequence of CLK2 (O35491 whole entry): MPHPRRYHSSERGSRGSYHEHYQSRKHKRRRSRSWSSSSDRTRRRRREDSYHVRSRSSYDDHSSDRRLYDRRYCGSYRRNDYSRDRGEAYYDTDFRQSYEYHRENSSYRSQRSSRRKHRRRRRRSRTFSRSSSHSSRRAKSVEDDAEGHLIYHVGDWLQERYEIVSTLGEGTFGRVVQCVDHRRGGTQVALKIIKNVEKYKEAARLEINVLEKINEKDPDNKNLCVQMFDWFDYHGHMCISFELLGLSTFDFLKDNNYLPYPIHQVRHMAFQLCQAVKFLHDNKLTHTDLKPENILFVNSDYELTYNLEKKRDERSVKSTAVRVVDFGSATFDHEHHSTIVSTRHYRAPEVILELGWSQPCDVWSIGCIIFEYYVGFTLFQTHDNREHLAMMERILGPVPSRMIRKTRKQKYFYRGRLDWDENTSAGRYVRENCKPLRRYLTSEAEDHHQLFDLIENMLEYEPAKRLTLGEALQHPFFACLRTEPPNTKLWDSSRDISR
Sequence of CLK3 (O35492 whole entry): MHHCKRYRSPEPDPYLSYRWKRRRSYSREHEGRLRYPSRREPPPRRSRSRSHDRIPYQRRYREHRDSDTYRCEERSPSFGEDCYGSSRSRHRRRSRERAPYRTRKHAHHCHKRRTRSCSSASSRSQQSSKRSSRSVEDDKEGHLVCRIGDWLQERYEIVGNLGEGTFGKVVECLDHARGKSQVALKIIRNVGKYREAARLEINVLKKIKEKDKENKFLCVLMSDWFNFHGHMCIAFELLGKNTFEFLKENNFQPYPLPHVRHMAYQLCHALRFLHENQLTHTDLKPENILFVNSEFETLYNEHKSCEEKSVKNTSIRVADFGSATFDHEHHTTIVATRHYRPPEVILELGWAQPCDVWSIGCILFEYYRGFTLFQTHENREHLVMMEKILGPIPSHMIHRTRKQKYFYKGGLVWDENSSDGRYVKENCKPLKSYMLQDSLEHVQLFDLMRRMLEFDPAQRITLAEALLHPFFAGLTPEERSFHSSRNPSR

Broadly, the pIC50 is the IC50 on a negative log10 scale, so that one unit is a factor of ten. The term half-life denotes the time needed for the level to fall by half in the phase considered. Read a low half-life as fast loss. `O=C1NC(Nc2ccccc2)=N/C1=C\c1ccc2c(c1)OCO2` [L41]: the figures for the pIC50 at CLK2, on CDK2/cyclin A and at CLK3 were 6.89, under 5.00 and 5.92, respectively. In the series on Tg(Dyrk1a) mice [1], the “Effect on place memory (place object location)” value was “no restoring effect”. Moreover, the “SYN1 Ser551 phosphorylation following treatment” value in [2] was “dephosphorylated”. Moreover, the “Recovery in NOR test” value in the series on Tg(Dyrk1a) mice [3] (5 days) is recorded as “only marginally”; with Tg(Dyrk1a) mice [3] (12 days), “consistently”; in the series with Tg(Dyrk1a) mice [3] (19 days), “fully observed”. The results for the “Persistence of NOR rescue” value in the series on Tg(Dyrk1a) mice [3] (24 h after the last day of the 19 day treatment) and in the series on Tg(Dyrk1a) mice [3] (48 h after the last day of the 19 day treatment) were “rescuing effect was detectable” and “no rescue”, respectively. In the series on Dp1Yey mice, the “Effect on altered default mode network (DMN) pattern” value was “rescued”. The “Effect on expression of DYRK1A and GSK-3α/β protein” value in the series with DYRK1A was “no effect”. For the same compound, in series [4] (Tg(Dyrk1a) transgenic and wild-type (wt) mice, plasma), the half-life was about 45 min. In addition, the “Blood brain barrier crossing” value in [4] (in vivo) is reported as “able to cross the blood brain barrier”. Moreover, the “Differences in pharmacokinetics or biodistribution between transgenic and wt mice” value in [4] (in vivo) is given as “No differences”. For the same compound, the “L41 in brain extracts” value in series [4] (in vivo) is “essentially undetectable”. Moreover, the “Time of maximum brain concentration” value in series [4] (in vivo) is 20 min. In addition, the “Time to elimination from brain after the maximum brain concentration” value in [4] (in vivo) stood at 2 h.

The values above are taken from PMC6176987, “Correction of cognitive deficits in mouse models of Down syndrome by a pharmacological inhibitor of DYRK1A” (Disease Models & Mechanisms, 2018).
